# Test results published in ChEMBL document CHEMBL1201862, “PubChem BioAssay data set” (2004).
# Active and inactive are the calls of the source.
# Assays:
# Caspase-3 = biological target: T1, Caspase-3 (Homo sapiens, UniProt P42574); type: functional;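 note: Dose-response selectivity test against caspase-3 for candidate inhibitors of sentrin-specific proteases (SENPs)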
# T1 sequence (P42574 whole entry): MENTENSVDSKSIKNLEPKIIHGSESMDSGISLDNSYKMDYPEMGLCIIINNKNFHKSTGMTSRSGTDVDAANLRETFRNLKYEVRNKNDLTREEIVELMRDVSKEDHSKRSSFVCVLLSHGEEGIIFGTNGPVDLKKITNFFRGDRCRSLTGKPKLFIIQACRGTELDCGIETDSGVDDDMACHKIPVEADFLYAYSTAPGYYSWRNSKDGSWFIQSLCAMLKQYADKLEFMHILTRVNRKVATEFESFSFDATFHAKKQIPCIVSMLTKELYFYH
# [1] = biological target: T2, Sentrin-specific protease 7 (Homo sapiens, UniProt Q9BQF6); type: functional;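 note: Luminescence-based dose-response confirmation of ultra-high-throughput screening hits, measuring inhibition of SENP7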
# T2 sequence (Q9BQF6 whole entry): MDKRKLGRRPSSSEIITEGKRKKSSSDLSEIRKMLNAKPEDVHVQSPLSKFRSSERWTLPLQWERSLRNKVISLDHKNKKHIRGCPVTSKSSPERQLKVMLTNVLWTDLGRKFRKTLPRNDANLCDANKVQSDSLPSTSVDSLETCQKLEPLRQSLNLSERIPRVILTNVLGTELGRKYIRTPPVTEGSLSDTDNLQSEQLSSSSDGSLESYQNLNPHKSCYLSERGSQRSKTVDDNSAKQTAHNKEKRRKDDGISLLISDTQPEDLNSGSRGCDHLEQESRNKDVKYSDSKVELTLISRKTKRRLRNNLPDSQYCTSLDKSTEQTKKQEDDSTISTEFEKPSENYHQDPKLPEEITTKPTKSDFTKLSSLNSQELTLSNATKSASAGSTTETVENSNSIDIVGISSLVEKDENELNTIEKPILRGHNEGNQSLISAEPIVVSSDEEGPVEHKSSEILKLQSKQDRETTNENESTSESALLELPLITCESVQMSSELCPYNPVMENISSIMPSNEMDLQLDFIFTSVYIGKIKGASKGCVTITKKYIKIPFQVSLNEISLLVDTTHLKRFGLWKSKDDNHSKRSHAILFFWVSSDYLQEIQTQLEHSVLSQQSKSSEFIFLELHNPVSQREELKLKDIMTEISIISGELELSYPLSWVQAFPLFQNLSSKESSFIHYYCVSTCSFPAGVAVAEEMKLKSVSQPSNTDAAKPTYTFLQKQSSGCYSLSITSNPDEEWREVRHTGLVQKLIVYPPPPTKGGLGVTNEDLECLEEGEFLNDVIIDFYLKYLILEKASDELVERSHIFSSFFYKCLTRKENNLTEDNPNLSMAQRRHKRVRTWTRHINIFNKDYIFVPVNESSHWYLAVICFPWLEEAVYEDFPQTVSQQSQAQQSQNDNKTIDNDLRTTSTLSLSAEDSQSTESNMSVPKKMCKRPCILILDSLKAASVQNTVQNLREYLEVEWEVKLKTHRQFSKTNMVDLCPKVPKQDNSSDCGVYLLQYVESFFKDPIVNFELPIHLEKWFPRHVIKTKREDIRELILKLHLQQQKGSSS
# [2] = biological target: T3, Sentrin-specific protease 6 (Homo sapiens, UniProt Q9GZR1); type: functional;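 note: Luminescence-based dose-response confirmatory assay of SENP6 inhibition, following up an ultra-high-throughput screen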
# T3 sequence (Q9GZR1 whole entry): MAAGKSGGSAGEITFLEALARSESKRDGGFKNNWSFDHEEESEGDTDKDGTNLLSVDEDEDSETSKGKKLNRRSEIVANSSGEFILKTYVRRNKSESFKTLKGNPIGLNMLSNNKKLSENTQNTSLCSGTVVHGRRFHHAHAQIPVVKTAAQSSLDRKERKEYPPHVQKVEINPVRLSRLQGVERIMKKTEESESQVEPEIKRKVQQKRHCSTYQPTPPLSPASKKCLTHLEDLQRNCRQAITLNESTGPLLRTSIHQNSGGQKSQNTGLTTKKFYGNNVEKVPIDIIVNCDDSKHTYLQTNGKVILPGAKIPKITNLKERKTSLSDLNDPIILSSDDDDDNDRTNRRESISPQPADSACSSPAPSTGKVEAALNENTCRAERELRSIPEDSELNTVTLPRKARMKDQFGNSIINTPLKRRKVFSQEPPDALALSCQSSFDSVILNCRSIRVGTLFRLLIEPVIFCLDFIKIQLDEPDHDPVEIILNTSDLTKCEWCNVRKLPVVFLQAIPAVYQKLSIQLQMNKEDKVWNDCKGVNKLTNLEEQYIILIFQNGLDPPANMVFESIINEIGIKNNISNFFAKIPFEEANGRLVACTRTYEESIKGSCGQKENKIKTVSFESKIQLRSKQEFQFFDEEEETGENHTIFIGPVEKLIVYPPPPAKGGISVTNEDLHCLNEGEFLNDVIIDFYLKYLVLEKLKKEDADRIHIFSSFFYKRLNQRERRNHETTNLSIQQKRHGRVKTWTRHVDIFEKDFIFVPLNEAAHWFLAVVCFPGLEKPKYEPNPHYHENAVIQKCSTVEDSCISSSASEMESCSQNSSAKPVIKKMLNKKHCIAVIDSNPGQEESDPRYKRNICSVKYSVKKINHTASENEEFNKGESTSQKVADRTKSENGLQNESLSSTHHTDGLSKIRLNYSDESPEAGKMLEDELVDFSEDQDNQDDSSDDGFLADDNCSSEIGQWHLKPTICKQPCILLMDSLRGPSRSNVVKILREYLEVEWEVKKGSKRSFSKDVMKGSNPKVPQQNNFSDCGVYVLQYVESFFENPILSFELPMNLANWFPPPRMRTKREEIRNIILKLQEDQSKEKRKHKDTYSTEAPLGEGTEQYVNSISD
# [3] = biological target: T4, Sentrin-specific protease 8 (Homo sapiens, UniProt Q96LD8); type: functional;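 note: luminescence read-out of SENP8 inhibition, dose-response confirmation following an ultra-high-throughput screen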
# T4 sequence (Q96LD8 whole entry): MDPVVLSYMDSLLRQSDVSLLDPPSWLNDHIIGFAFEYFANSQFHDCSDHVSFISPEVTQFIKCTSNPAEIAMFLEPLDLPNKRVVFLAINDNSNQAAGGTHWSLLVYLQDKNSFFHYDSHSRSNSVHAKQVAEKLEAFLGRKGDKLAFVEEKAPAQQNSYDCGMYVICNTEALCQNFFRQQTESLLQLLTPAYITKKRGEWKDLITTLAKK
# [4] = Shn3 3'UTR reporter inhibitors, dose response, cell-based, Clone20 osteoblasts, firefly luciferase, cherry-picked (AID 624132); type: functional;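 note: firefly luciferase luminescence from reporter carrying the Shn3 3'UTR in osteoblasts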
# [5] = HepG2 cell cytotoxicity, dose response, cytotoxicity control for Shn3 inhibitor project, CellTiter-Glo, cherry-picked (AID 624134); type: functional, cell-based
# [6] = control 3'UTR Renilla luciferase suppression, dose response, counter-screen for Shn3 inhibitor project, cell-based, Clone20-Shn3RL, cherry-picked (AID 624133); type: functional
# [7] = system: Streptococcus sp. 'group A'; experiment: growth inhibition of control SK(-) GAS strain, dose response, counter-screen for streptokinase expression inhibitor project, luminescence, kanamycin, BacTiterGlo, confirmation (AID 1900); type: functional, organism-based
# Streptokinase A = biological target: T5, Streptokinase A (Streptococcus pyogenes serotype M1, UniProt P10520); experiment: S. pyogenes streptokinase expression inhibitors, potency, dose response, plasminogen activation absorbance, OD405 (AID 1914); type: functional, Streptococcus pyogenes M1 GAS;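 note: secreted streptokinase activity via plasminogen activation per viability signal from cell pellet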
# T5 sequence (P10520 whole entry): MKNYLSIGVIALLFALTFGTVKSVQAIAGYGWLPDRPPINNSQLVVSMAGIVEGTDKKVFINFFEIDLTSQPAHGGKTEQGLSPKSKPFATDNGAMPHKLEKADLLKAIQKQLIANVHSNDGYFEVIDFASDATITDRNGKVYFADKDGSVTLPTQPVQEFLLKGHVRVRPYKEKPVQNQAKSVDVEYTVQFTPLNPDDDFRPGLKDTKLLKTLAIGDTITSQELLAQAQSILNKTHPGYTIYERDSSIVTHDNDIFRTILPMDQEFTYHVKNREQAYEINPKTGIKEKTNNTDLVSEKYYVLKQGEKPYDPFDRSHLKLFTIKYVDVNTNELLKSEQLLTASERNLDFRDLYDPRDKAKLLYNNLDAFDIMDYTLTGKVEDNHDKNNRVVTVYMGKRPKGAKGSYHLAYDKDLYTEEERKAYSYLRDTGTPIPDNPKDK
# Streptococcus = experiment: Group A Streptococcus viability loss, dose response, counter-screen for streptokinase expression inhibitor project, luminescence, BacTiterGlo (AID 1915); type: functional, organism-based;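 note: potency for reduction of bacterial viability or growth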
# [8] = inhibitors of firefly luciferase expression or activity, dose response, H4 neuroglioma cells, luminescence (AID 1990); type: functional, cell-based
# BJ [9] = experiment: cytotoxicity toward BJ-TERT fibroblasts, dose response, cell-based, RAS-independent, luminescence (AID 1933); type: functional; conditions: Homo sapiens
# [10] = Luminescence Cell-Based Dose Response HTS to Identify Inhibitors of 5'UTR Stem-Loop Driven Prion Protein mRNA Translation in H4 Neuroglioblastoma Cells. [Related pubchem assays: 1827 (Project Summary), 1813 (Primary HTS)]; type: functional
# [11] = inhibitors of SNCA 5'UTR-driven reporter translation, confirmation, H4 neuroglioma cells, luminescence (AID 1988); type: functional, cell-based
# BJ [12] = experiment: cells; type: functional, cell-based; conditions: Homo sapiens
# BJ [13] = experiment: cytotoxicity toward BJ-TERT-LT-ST fibroblasts, dose response, cell-based, RAS-independent, luminescence (AID 1935); type: functional; conditions: Homo sapiens;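 note: BJ fibroblasts immortalized with TERT plus LT and ST oncogenes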
# [14] = cytotoxicity toward DRD oncogenic fibroblasts, dose response, cell-based, non-viral oncogenic, luminescence (AID 1934); type: functional; conditions: Homo sapiens
# BJ [15] = experiment: cytotoxicity toward Ras-transformed BJeLR fibroblasts, dose response, cell-based, alamar blue fluorescence, cherrypicked samples (AID 2631); type: functional; conditions: Homo sapiens;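 note: confirmatory dose-response assay in RAS-dependent BJ fibroblasts engineered with TERT, LT and ST, with cytotoxicity read by fluorescence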
# [16] = inhibitors of clade B AD8 Env fusion, dose response, cell-based, cherry-pick (AID 652062); type: functional;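 note: luciferase signal from cell-cell fusion driven by HIV-1 clade B AD8 Env; potency is for inhibitors of fusion seen as a drop in luminescence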
# [17] = A549 cell cytotoxicity, dose response, cytotoxicity control, plate reader, cherry-pick, antagonist series (AID 743412); type: functional, cell-based
# [18] = HepG2 cell cytotoxicity, dose response, cytotoxicity control, plate reader, cherry-pick, antagonist series (AID 743416); type: functional, cell-based
# [19] = LGR2 antagonists, dose response, cell-based, HEK293, CRE-luciferase reporter, cherry pick, set 2 (AID 743343); type: functional;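 note: transfected cells were stimulated with diluted bursicon conditioned medium after compound addition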
# [20] = MC4R antagonists, dose response, counter-screen for LGR2 antagonist project, cell-based, plate reader, cherry pick (AID 743444); type: functional;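 note: transfected HEK 293 cells stimulated with alpha-MSH peptide; potency of inhibitors of the alpha-MSH evoked signal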
# [21] = HEK293 cell cytotoxicity, dose response, cytotoxicity control, plate reader, cherry-picked samples (AID 743446); type: functional, cell-based
Structure (SMILES),IC50 (Caspase-3),IC50 [1],IC50 [2],IC50 [3],AC50 [4],AC50 [5],AC50 [6],further results
N#Cc1ccsc1NC(=O)CSc1nnnn1-c1ccc(O)cc1,20.6 µM (active),10.3 µM (active),30.5 µM (active),36.8 µM (active),,,,
COc1ccc(NC(=O)CSc2ncccc2C(=O)OC(C)C)cc1OC,,,,,4.1 µM (active),41.9 µM (active),1.54 µM (active),
COc1ccc(-c2nc(NC(=O)C3CC(=O)N(c4ccc5c(c4)OCCO5)C3)sc2C)cc1 (stereo not given),,,,,5.24 µM (active),47.3 µM (active),13.4 µM (active),EC50 [7]: 21.7 µM (active); EC50 (Streptokinase A): > 150 µM (not active); EC50 (Streptococcus): 63.6 µM (active)
CCOc1ccc(CC(=O)Nc2ccc(NC(=O)c3ccco3)cc2)cc1OCC,,,,,,,,EC50 [8]: 11 µM (active); EC50 (BJ [9]): > 150 µM (not active); EC50 [10]: 6.05 µM (active); EC50 [11]: 8.44 µM (active); EC50 (BJ [12]): 2.55 µM (active); EC50 (BJ [13]): 9.89 µM (inconclusive); EC50 [14]: > 150 µM (not active); EC50 (BJ [15]): > 66.7 µM (inactive)
CCN(C(=O)C1CCN(c2nc(-c3ccc(OC)cc3)no2)CC1)c1ccc(OC)cc1,,,,,3.17 µM (active),62.5 µM (active),11.8 µM (active),
Cc1cccc(-n2ncc3c(N4CCC(C)CC4)ncnc32)c1,19.5 µM (active),7.97 µM (active),21.9 µM (active),27.9 µM (active),,,,
CC(=O)c1ccccc1OCCOCCOCCOc1ccccc1C(C)=O,,,,,,,,EC50 [8]: > 120 µM (not active); EC50 (BJ [9]): 27 µM (active); EC50 [11]: > 120 µM (not active); EC50 (BJ [12]): > 150 µM (not active); EC50 (BJ [13]): > 150 µM (inconclusive); EC50 [14]: > 150 µM (not active); EC50 (BJ [15]): > 133 µM (inactive)
O=C(CSc1ccccn1)NCc1ccc2c(c1)OCO2,,,,,,,,EC50 (BJ [15]): > 133 µM (inactive)
CC1CN(S(=O)(=O)c2cc(C(=O)NCCC3=CCCCC3)ccc2Cl)CC(C)O1 (stereo not given),,,,,,,,AC50 [16]: 7.96 µM (active)
Oc1nc2ccccc2n1C1CCN(C(c2cccs2)c2nnnn2Cc2ccccc2)CC1 (stereo not given),,,,,2.98 µM (active),> 70 µM (inactive),6.11 µM (active),AC50 [17]: 13.7 µM (active); AC50 [18]: 44.4 µM (active); AC50 [19]: 2.74 µM (active); AC50 [20]: 1.76 µM (active); AC50 [21]: 29.8 µM (active)
C/C(=N\Nc1ccc([N+](=O)[O-])cc1)c1ccco1,18.4 µM (active),6.51 µM (active),10.6 µM (active),73.8 µM (active),,,,
C/C(=N\OC(=O)c1ccc(Br)cc1)c1ccccn1,1.26 µM (active),1.01 µM (active),1.31 µM (active),2.43 µM (active),,,,
COc1cccc(C(=O)Oc2ccc(/C=N/Nc3ccc(C(=O)O)cc3)cc2OC)c1,74.2 µM (active),12.3 µM (active),14.3 µM (active),17.1 µM (active),,,,EC50 [7]: 5 µM (active); EC50 (Streptokinase A): > 150 µM (not active); EC50 (Streptococcus): 19 µM (active)
